Source: US20180255816A1, “SWEETENERS HAVING ENHANCED ORGANOLEPTIC PROPERTIES” (CORNELL UNIVERSITY, priority 2015, published 2018)

Tests used:
[1] = compared with dulcoside A; cited from earlier work
[2] = target: bovine serum albumin (BSA) (Bos taurus, UniProt P02769); experiment: Saturation transfer difference (STD) NMR binding screen with BSA
Source text: A first step is to assess binding of the protein to ligand under investigation. Saturation transfer difference (STD) NMR spectroscopy was utilized to screen ligands for binding to proteins. The method is based on the transfer of saturation from the protein to the bound ligands, which exchange into solution where they are detected as a reduction in the intensity of the free ligand signal. By subtracting the spectrum in which the protein is saturated from a spectrum without protein saturation produces a spectrum showing only the difference in which only the signals of the ligand(s) remain. This method was used to identify binding epitopes, because the ligand residues in direct contact with the protein show faster build-up of STD signals. This method involves a several-fold excess of ligand concentration over protein, allowing low […] protein concentrations to be used. […]
FIG. 2A is the pre-saturated 600 MHz ^1H NMR spectrum of a 2 mM rebaudioside A and 50 μM BSA in filtered orange juice with 10% D2O at 25° C. A STD spectrum (FIG. 2B) of 2 mM rebaudioside A and 50 μM BSA in filtered orange juice with on- and off-resonance saturation at 8.56 and 31 ppm, respectively was recorded to validate the stability of rebaudioside A—BSA complex in a natural and complex food matrix. […]

[3] = target: T1, β-lactoglobulin (Bos taurus, UniProt P02754); experiment: STD NMR binding with β-lactoglobulin; settings: 1 mM rebaudioside A, 20 μM β-lactoglobulin, 40° C., pH 3
T1 sequence (P02754 17-178): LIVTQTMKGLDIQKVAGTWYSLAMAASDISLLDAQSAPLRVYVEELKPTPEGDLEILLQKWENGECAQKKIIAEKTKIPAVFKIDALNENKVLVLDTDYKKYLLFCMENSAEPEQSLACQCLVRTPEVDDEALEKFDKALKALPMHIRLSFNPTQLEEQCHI
Source text: A first step is to assess binding of the protein to ligand under investigation. Saturation transfer difference (STD) NMR spectroscopy was utilized to screen ligands for binding to proteins. The method is based on the transfer of saturation from the protein to the bound ligands, which exchange into solution where they are detected as a reduction in the intensity of the free ligand signal. By subtracting the spectrum in which the protein is saturated from a spectrum without protein saturation produces a spectrum showing only the difference in which only the signals of the ligand(s) remain. This method was used to identify binding epitopes, because the ligand residues in direct contact with the protein show faster build-up of STD signals. This method involves a several-fold excess of ligand concentration over protein, allowing low […] protein concentrations to be used.
FIG. 8A is the solvent suppressed (WET) ^1H NMR spectrum of a sample containing 1 mM rebaudioside A and 20 μM β-lactoglobulin at 40° C. and pH 3. FIG. 8B is the STD spectrum of the same sample. Separate FIDs were stored with on-resonance saturation at 7.19 ppm and off-resonance saturation at −15 ppm.

[4] = system: panelists; experiment: Paired comparison taste test of organoleptic properties by 5 panelists; format: in vivo; settings: taste panel, solution in 50 mL
Source text: The following compositions were formulated and tested for their organoleptic properties through a paired comparison test by 5 panelists.

Chain of bovine serum albumin (BSA) (P02769 25-607): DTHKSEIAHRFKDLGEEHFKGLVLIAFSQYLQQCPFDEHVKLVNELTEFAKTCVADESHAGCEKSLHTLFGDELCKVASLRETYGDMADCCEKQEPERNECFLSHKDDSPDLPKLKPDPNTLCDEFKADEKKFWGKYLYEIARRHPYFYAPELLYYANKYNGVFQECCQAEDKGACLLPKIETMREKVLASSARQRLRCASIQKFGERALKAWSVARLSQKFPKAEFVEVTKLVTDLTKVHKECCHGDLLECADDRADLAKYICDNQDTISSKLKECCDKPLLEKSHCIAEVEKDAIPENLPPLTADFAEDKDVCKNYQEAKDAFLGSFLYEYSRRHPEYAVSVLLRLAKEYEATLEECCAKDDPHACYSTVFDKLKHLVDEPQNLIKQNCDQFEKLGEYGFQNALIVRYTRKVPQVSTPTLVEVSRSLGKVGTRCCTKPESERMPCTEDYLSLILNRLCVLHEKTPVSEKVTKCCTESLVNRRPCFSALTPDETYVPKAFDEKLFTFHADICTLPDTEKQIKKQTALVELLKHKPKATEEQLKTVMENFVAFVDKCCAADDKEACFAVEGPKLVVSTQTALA

Compound	bitterness relative to dulcoside A [1]	sweetness relative to dulcoside A [1]	binding to BSA by STD spectrum ([2]; 1 mM rebaudioside A, 20 μM BSA, D2O, pH 3.0, 40° C., saturation at 7.19 ppm)	binding to BSA by STD spectrum in food matrix ([2]; 2 mM rebaudioside A, 50 μM BSA, filtered orange juice with 10% D2O, 25° C.)	binding to β-lactoglobulin by STD spectrum [3]	Quality: bitter after taste [4]	Quality: onset of sweetness [4]
C=C1C[C@@]23CC[C@H]4[C@@](C)(CCC[C@@]4(C)C(=O)O[C@@H]4O[C@H](CO)[C@@H](O)[C@H](O)[C@H]4O[C@@H]4O[C@H](CO)[C@@H](O)[C@H](O)[C@H]4O)[C@@H]2CC[C@]1(O[C@@H]1O[C@H](CO)[C@@H](O)[C@H](O[C@@H]2O[C@H](CO)[C@@H](O)[C@H](O)[C@H]2O)[C@H]1O[C@@H]1O[C@H](CO)[C@@H](O)[C@H](O)[C@H]1O)C3 [rebaudioside D]	two-thirds less bitter	around five times sweeter					
rebaudioside A			binds to BSA	specific binding between Rebaudioside A and BSA occurs	capable of binding to β-lactoglobulin	sweetness and bitter after taste	Slow onset of sweetness
